Laboratory results taken from ChEMBL document CHEMBL1201862, “PubChem BioAssay data set” (2004).
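Growth conditions: 96-well plates. Treatment: test compound, 48 hours, 5 concentrations. Analysis: linear interpolation between bracketing concentrations; unreached endpoints set to highest concentration. GI50 is the concentration that inhibits growth by half.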 Calls of active or inactive are those of the source. Rule as the data show it: active = GI50 up to about 1.1 µM and inactive = higher.

Key:
Test in all cases: NCI-60 cell line screen, 48 h
[1] = system: CCRF-CEM
[2] = system: OVCAR-5
[3] = system: PC-3
[4] = system: TK-10
[5] = system: SNB-19
[6] = system: HCC 2998
[7] = system: OVCAR-8
[8] = system: HOP-62
[9] = system: UACC-257
[10] = system: ACHN
[11] = system: KM12
[12] = system: RPMI-8226
[13] = system: BT-549
[14] = system: Malme-3M
[15] = system: COLO 205
[16] = system: SF-268
[17] = system: SK-MEL-2
[18] = system: UACC-62
[19] = system: RXF 393

With `Cc1nc2c(o1)C(=O)c1ccccc1/C2=N/C1CCCCC1N` (configuration not stated) the GI50 [1] was 0.247 µM (active), the GI50 [2] was 1.75 µM (inactive) and the GI50 [3] was 0.321 µM (active). The GI50 [4] was 1.98 µM (inactive), the GI50 [5] was 0.787 µM (active) and the GI50 [6] was 1.65 µM (inactive). The GI50 [7] was 0.274 µM (active), the GI50 [8] was 0.982 µM (active) and the GI50 [9] was 0.144 µM (active). For the same compound, the GI50 [10] was 0.649 µM (active), the GI50 [11] was 1.67 µM (inactive) and the GI50 [12] was 0.565 µM (active). For the same compound, the GI50 [13] was 0.41 µM (active), the GI50 [14] was 0.133 µM (active) and the GI50 [15] was 1.66 µM (inactive). The GI50 [16] was 1.09 µM (active), the GI50 [17] was 0.867 µM (active) and the GI50 [18] was 0.169 µM (active).
In the case of `COc1cc(C(c2c(O)c3ccccc3oc2=O)c2c(O)c3ccccc3oc2=O)cc(Br)c1O`, the GI50 [2] was 23.5 µM (inactive), the GI50 [3] was 19.1 µM (inactive) and the GI50 [4] was 16.1 µM (inactive). For the same compound, the GI50 [5] was 18.6 µM (inactive), the GI50 [7] was 17.3 µM (inactive) and the GI50 [8] was 18.6 µM (inactive). For the same compound, the GI50 [9] was 17.3 µM (inactive), the GI50 [10] was 17.4 µM (inactive) and the GI50 [11] was 17.5 µM (inactive). For the same compound, the GI50 [12] was 19.8 µM (inactive), the GI50 [13] was 17 µM (inactive) and the GI50 [14] was 16.8 µM (inactive). For the same compound, the GI50 [19] was 17.4 µM (inactive), the GI50 [15] was 18.2 µM (inactive) and the GI50 [16] was 13.8 µM (inactive). For the same compound, the GI50 [17] was 23.8 µM (inactive) and the GI50 [18] was 16 µM (inactive).
For `CCCC(CCN)(CCN)[N+](=O)[O-]`, the GI50 [1] was > 100 µM (inactive), the GI50 [2] was > 100 µM (inactive) and the GI50 [3] was > 100 µM (inactive). The GI50 [4] was > 100 µM (inactive), the GI50 [5] was > 100 µM (inactive) and the GI50 [7] was > 100 µM (inactive). The GI50 [9] was > 100 µM (inactive), the GI50 [10] was > 100 µM (inactive) and the GI50 [11] was > 100 µM (inactive). For the same compound, the GI50 [12] was > 100 µM (inactive), the GI50 [13] was > 100 µM (inactive) and the GI50 [14] was > 100 µM (inactive). The GI50 [19] was > 100 µM (inactive), the GI50 [15] was > 100 µM (inactive) and the GI50 [16] was > 100 µM (inactive). For the same compound, the GI50 [17] was > 100 µM (inactive) and the GI50 [18] was > 100 µM (inactive).
For `COc1cc2c(cc1OC)CCc1cc(OC)c(OC)cc1CC2`, the GI50 [1] was > 100 µM (inactive), the GI50 [2] was > 100 µM (inactive) and the GI50 [3] was > 100 µM (inactive). For the same compound, the GI50 [4] was > 100 µM (inactive), the GI50 [5] was > 100 µM (inactive) and the GI50 [6] was > 100 µM (inactive). For the same compound, the GI50 [7] was > 100 µM (inactive), the GI50 [8] was > 100 µM (inactive) and the GI50 [9] was > 100 µM (inactive). The GI50 [10] was > 100 µM (inactive), the GI50 [11] was > 100 µM (inactive) and the GI50 [13] was > 100 µM (inactive). The GI50 [14] was > 100 µM (inactive), the GI50 [15] was > 100 µM (inactive) and the GI50 [17] was > 100 µM (inactive). For the same compound, the GI50 [18] was > 100 µM (inactive).
With `Fc1ccc(C(OCCN2CC3CCC(C2)N3CCCc2ccccc2)c2ccc(F)cc2)cc1` the GI50 [1] was 2.71 µM (inactive), the GI50 [2] was 10.6 µM (inactive) and the GI50 [3] was 2.72 µM (inactive). The GI50 [4] was 11.7 µM (inactive), the GI50 [5] was 10.1 µM (inactive) and the GI50 [6] was 2.87 µM (inactive). For the same compound, the GI50 [7] was 2.3 µM (inactive), the GI50 [8] was 6.03 µM (inactive) and the GI50 [9] was 3.33 µM (inactive). For the same compound, the GI50 [10] was 10.6 µM (inactive), the GI50 [11] was 3.18 µM (inactive) and the GI50 [12] was 2.15 µM (inactive). For the same compound, the GI50 [13] was 12.4 µM (inactive), the GI50 [14] was 3.32 µM (inactive) and the GI50 [15] was 1.41 µM (inactive). The GI50 [16] was 4.5 µM (inactive), the GI50 [17] was 2.55 µM (inactive) and the GI50 [18] was 9.51 µM (inactive).
For `COc1c(Sc2c(SCSc3cnc4ccccc4c3Sc3cnc4ccccc4c3OC)cnc3ccccc23)cnc2ccccc12`, the GI50 [1] was > 100 µM (inactive), the GI50 [2] was > 100 µM (inactive) and the GI50 [3] was > 100 µM (inactive). For the same compound, the GI50 [4] was 38.6 µM (inactive), the GI50 [5] was 22.4 µM (inactive) and the GI50 [6] was > 100 µM (inactive). For the same compound, the GI50 [7] was 31.7 µM (inactive), the GI50 [8] was 42.9 µM (inactive) and the GI50 [9] was > 100 µM (inactive). The GI50 [10] was 82.6 µM (inactive), the GI50 [11] was > 100 µM (inactive) and the GI50 [12] was 9.2 µM (inactive). For the same compound, the GI50 [13] was 54.5 µM (inactive), the GI50 [15] was > 100 µM (inactive) and the GI50 [16] was > 100 µM (inactive). The GI50 [17] was > 100 µM (inactive) and the GI50 [18] was 39.1 µM (inactive).
In the case of `CN1CCN(CC(=O)N2CCCn3c2nc2ccccc2c3=O)CC1`, the GI50 [1] was > 100 µM (inactive), the GI50 [2] was > 100 µM (inactive) and the GI50 [3] was > 100 µM (inactive). The GI50 [4] was > 100 µM (inactive), the GI50 [5] was > 100 µM (inactive) and the GI50 [6] was > 100 µM (inactive). For the same compound, the GI50 [7] was > 100 µM (inactive), the GI50 [8] was > 100 µM (inactive) and the GI50 [9] was > 100 µM (inactive). For the same compound, the GI50 [10] was > 100 µM (inactive), the GI50 [11] was > 100 µM (inactive) and the GI50 [12] was > 100 µM (inactive). The GI50 [13] was > 100 µM (inactive), the GI50 [14] was > 100 µM (inactive) and the GI50 [15] was > 100 µM (inactive). For the same compound, the GI50 [16] was > 100 µM (inactive), the GI50 [17] was > 100 µM (inactive) and the GI50 [18] was > 100 µM (inactive).
With `COc1cc(C(=O)N(C(=S)OCc2ccccn2)c2ccccc2)cc(OC)c1OC` the GI50 [1] was 17.8 µM (inactive), the GI50 [2] was 49.2 µM (inactive) and the GI50 [3] was 74.3 µM (inactive). For the same compound, the GI50 [4] was 70.8 µM (inactive), the GI50 [5] was > 100 µM (inactive) and the GI50 [7] was 62.2 µM (inactive). For the same compound, the GI50 [9] was > 100 µM (inactive), the GI50 [10] was 42.3 µM (inactive) and the GI50 [11] was > 100 µM (inactive). For the same compound, the GI50 [12] was 26.8 µM (inactive), the GI50 [13] was 41 µM (inactive) and the GI50 [14] was 8.22 µM (inactive). For the same compound, the GI50 [19] was 42.2 µM (inactive), the GI50 [15] was 53.5 µM (inactive) and the GI50 [16] was > 100 µM (inactive). The GI50 [17] was > 100 µM (inactive) and the GI50 [18] was 56.4 µM (inactive).
For `Cc1ccc(S(=O)(=O)NC(CCC(=O)NNc2ccccc2)C(=O)NNc2ccccc2)cc1` (configuration not stated), the GI50 [1] was 51.4 µM (inactive), the GI50 [2] was 46.8 µM (inactive) and the GI50 [3] was 4.14 µM (inactive). For the same compound, the GI50 [4] was 1.95 µM (inactive), the GI50 [5] was > 100 µM (inactive) and the GI50 [7] was 6.43 µM (inactive). For the same compound, the GI50 [8] was > 100 µM (inactive), the GI50 [9] was 15.1 µM (inactive) and the GI50 [10] was 2.13 µM (inactive). For the same compound, the GI50 [11] was 2.84 µM (inactive), the GI50 [12] was 5.58 µM (inactive) and the GI50 [13] was > 100 µM (inactive). The GI50 [14] was 31.7 µM (inactive), the GI50 [19] was > 100 µM (inactive) and the GI50 [15] was 13.4 µM (inactive). The GI50 [16] was 46.8 µM (inactive), the GI50 [17] was 13.5 µM (inactive) and the GI50 [18] was 2.87 µM (inactive).
In the case of `C=CCn1c(-c2ccc(/N=N/Nc3ccc(-c4n[nH]c(=S)n4CC=C)cc3)cc2)n[nH]c1=S`, the GI50 [1] was 3.13 µM (inactive), the GI50 [2] was 28 µM (inactive) and the GI50 [3] was 3.17 µM (inactive). The GI50 [4] was 11.8 µM (inactive), the GI50 [5] was 27 µM (inactive) and the GI50 [7] was 2.8 µM (inactive). The GI50 [8] was 3.4 µM (inactive), the GI50 [9] was 3.33 µM (inactive) and the GI50 [10] was 2.21 µM (inactive). For the same compound, the GI50 [11] was 3.04 µM (inactive), the GI50 [12] was 1.76 µM (inactive) and the GI50 [13] was 2.3 µM (inactive). The GI50 [14] was 3.57 µM (inactive), the GI50 [19] was 13.9 µM (inactive) and the GI50 [15] was 2.94 µM (inactive). The GI50 [16] was 5.06 µM (inactive) and the GI50 [17] was 2.67 µM (inactive).
`Cc1ncc([N+](=O)[O-])n1CCNC(=O)CCCCCn1ccnc1[N+](=O)[O-]` was tested, and the GI50 [1] was > 100 µM (inactive), the GI50 [2] was > 100 µM (inactive) and the GI50 [3] was > 100 µM (inactive). For the same compound, the GI50 [5] was > 100 µM (inactive), the GI50 [6] was > 100 µM (inactive) and the GI50 [7] was > 100 µM (inactive). For the same compound, the GI50 [8] was > 100 µM (inactive), the GI50 [9] was > 100 µM (inactive) and the GI50 [10] was > 100 µM (inactive). The GI50 [11] was > 100 µM (inactive), the GI50 [13] was > 100 µM (inactive) and the GI50 [14] was > 100 µM (inactive). For the same compound, the GI50 [15] was 43.6 µM (inactive), the GI50 [16] was > 100 µM (inactive) and the GI50 [17] was > 100 µM (inactive). The GI50 [18] was > 100 µM (inactive).
`O=C(O)Cc1ccc([N+](=O)[O-])cc1[N+](=O)[O-]` was tested, and the GI50 [1] was > 100 µM (inactive), the GI50 [2] was > 100 µM (inactive) and the GI50 [3] was > 100 µM (inactive). The GI50 [4] was > 100 µM (inactive), the GI50 [5] was > 100 µM (inactive) and the GI50 [7] was > 100 µM (inactive). For the same compound, the GI50 [8] was > 100 µM (inactive), the GI50 [9] was > 100 µM (inactive) and the GI50 [10] was > 100 µM (inactive). For the same compound, the GI50 [11] was > 100 µM (inactive), the GI50 [12] was > 100 µM (inactive) and the GI50 [13] was > 100 µM (inactive). The GI50 [14] was > 100 µM (inactive), the GI50 [19] was > 100 µM (inactive) and the GI50 [15] was > 100 µM (inactive). For the same compound, the GI50 [16] was > 100 µM (inactive), the GI50 [17] was > 100 µM (inactive) and the GI50 [18] was > 100 µM (inactive).
